Literature values in patent US11975013B2, “Stable formulations comprising thiotepa” (SHORLA PHARMA LTD., priority 2020, dated 2024).

Details: reconstituted in water, stored longer than five days; EP 0 419 890

For S=P(N1CC1)(N1CC1)N1CC1 [thiotepa, N,N′,N″-triethylenethiophosphoramide], the “potency on storage (in words)” value is listed as “substantial loss of potency”.
